From US8785459B2, “Quinazoline compounds as kinase inhibitors” (Development Center for Biotechnology, priority 2011, dated 2014)

Tests used:
Assay type in all cases: biochemical
C-Raf = C-Raf (Homo sapiens (Human), UniProt P04049); assay: Raf kinase assay (C-Raf), [33P] incorporation into MEK1(K97R)
Procedure: (§1) A. Raf Kinase Assays (B-Raf, B-raf (V600E), and C-Raf)
(§2) Inhibition of kinase activity by test compound disclosed herein was estimated by quantifying the amount of [^33P] incorporation of substrate in the presence of test compound. Standard assay conditions were 2 ng of recombinant C-Raf or 5 ng of recombinant B-Raf or 5 ng of recombinant B-Raf (V600E) kinase (Upstate Biotechnology) with 500 ng MEK1(K97R) in assay buffer {8 μM ATP, 0.5 μCi [^33P]ATP (specific activity 3000 Ci/mmol, PerkinElmer), 50 mM Tris/HCl (pH7.5), and 1 mM EGTA, 1 mM Na3VO4, 1% 2-mercaptoethanol, 0.1% Brij 35, and 0.2 mg/ml BSA} at a final volume of 25 μL. Reactions were incubated at 30° C. for 30 min and stopped by adding 3% phosphoric acid, harvested onto a 96-well GF/B UniFilter (PerkinElmer) using a unifilter harvester (PerkinElmer), and counted with a TopCount microplate scintillation counter (PerkinElmer). The IC50 values of inhibitors were determined after carrying out assays at 3-fold serially diluted concentrations of each compound in duplication. The results were analyzed using linear regression software (GraphPad Prism 4; GraphPad Software Inc.). Inhibition of B-Raf, B-raf (V600E), and C-Raf kinases by various compounds listed in Table 1 are summarized and shown in Table 3 below. IC50 value is defined as the concentration of the test compound which achieves a half-maximal inhibition of the kinase activity.

B-Raf (V600E) = B-Raf (V600E) (Homo sapiens (Human), UniProt P15056, V600E); assay: Raf kinase assay (B-Raf (V600E)), [33P] incorporation into MEK1(K97R)
Sequence of B-Raf (V600E) (P15056 whole entry V600E): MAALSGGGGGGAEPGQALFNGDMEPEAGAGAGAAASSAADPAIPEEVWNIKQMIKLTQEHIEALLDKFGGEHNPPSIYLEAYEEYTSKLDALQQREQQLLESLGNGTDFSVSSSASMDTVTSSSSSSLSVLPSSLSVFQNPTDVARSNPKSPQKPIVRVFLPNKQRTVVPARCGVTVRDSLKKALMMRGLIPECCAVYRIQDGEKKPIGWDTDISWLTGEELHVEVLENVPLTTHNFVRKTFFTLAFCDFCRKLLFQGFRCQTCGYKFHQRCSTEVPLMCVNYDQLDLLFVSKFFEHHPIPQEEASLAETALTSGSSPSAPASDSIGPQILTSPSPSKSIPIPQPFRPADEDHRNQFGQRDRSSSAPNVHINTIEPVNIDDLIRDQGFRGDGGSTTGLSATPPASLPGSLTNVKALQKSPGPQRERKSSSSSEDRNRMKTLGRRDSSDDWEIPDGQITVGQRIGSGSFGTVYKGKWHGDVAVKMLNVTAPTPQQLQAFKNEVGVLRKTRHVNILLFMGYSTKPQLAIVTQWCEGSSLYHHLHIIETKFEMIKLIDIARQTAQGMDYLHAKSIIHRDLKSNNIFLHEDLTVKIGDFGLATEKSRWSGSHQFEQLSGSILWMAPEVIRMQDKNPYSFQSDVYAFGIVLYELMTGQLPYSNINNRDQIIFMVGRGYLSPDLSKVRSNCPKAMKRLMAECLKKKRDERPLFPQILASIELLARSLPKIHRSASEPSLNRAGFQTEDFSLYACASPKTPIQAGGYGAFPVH
Procedure: as §1, §2

B-Raf = B-Raf (Homo sapiens (Human), UniProt P15056); assay: Raf kinase assay (B-Raf), [33P] incorporation into MEK1(K97R); settings: for inhibition at 1 µM: read-out: B-Raf inhibition at 1.0 μM
Sequence of B-Raf (P15056 whole entry): as the sequence (P15056 whole entry V600E) above, with E600V counted along it
Procedure: as §1, §2

Sequence of C-Raf (P04049 whole entry): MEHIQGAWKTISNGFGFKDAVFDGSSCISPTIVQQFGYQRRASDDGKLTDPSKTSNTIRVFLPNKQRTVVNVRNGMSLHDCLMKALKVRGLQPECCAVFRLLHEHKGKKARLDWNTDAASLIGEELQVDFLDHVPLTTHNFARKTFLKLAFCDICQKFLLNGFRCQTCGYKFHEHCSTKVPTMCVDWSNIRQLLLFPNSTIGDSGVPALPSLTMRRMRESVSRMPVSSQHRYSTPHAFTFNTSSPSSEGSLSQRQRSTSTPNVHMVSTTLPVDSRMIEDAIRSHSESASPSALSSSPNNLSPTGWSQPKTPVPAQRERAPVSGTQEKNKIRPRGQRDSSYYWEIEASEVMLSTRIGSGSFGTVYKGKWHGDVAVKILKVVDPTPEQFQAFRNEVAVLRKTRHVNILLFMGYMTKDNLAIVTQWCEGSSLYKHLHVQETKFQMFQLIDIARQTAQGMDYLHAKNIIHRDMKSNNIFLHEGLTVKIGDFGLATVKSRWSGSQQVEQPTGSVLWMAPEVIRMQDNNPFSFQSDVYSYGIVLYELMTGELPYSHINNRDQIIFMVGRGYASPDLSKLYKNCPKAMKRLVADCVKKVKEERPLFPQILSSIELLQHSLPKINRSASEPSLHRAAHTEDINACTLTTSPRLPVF

Row | IC50 (C-Raf) [nM] | IC50 (B-Raf (V600E)) [nM] | IC50 (B-Raf) [nM] | inhibition at 1 µM (B-Raf; 1.0 μM compound) [%] | B-Raf inhibition at 1.0 μM (B-Raf; 1.0 μM compound) [%] | Structure (SMILES)
1 | 1400 | 707 | 660 | 57.5 | – | COc1cc(-c2ccc3ncnc(Nc4ccc5c(c4)OCO5)c3c2)ccc1O [Compound 38, 4-(4-(benzo[d][1,3]dioxol-5-ylamino)quinazolin-6-yl)-2-methoxyphenol]
2 | 1060 | 270 | 240 | 77.5 | – | COc1cc(-c2ccc3ncnc(Nc4cc(NS(C)(=O)=O)ccc4F)c3c2)ccc1O [Compound 129, N-(4-fluoro-3-(6-(4-hydroxy-3-methoxyphenyl)quinazolin-4-ylamino)phenyl)methanesulfonamide]
3 | 887 | 453 | 415 | 77.2 | – | COc1cc(-c2ccc3ncnc(Nc4cccc(S(N)(=O)=O)c4)c3c2)ccc1O [Compound 27, 3-(6-(4-hydroxy-3-methoxyphenyl)quinazolin-4-ylamino)benzenesulfonamide]
4 | 3090 | 377 | 669 | 62.6 | – | COc1cc(-c2ccc3ncnc(Nc4ccccc4O)c3c2)ccc1O [Compound 23, 4-(4-(2-hydroxyphenylamino)quinazolin-6-yl)-2-methoxyphenol]
5 | 580 | 572 | 494 | 65 | – | COc1cc(-c2ccc3ncnc(Nc4ccc(C(=O)O)cc4O)c3c2)ccc1O [Compound 34, 3-hydroxy-4-(6-(4-hydroxy-3-methoxyphenyl)quinazolin-4-ylamino)benzoic acid]
6 | 1310 | 849 | 573 | 65.8 | – | COc1cc(-c2ccc3ncnc(Nc4cccc(N)c4)c3c2)ccc1O [Compound 37, 4-(4-(3-aminophenylamino)quinazolin-6-yl)-2-methoxyphenol]
7 | 500 | 181 | 141 | 85.5 | – | COc1cc(-c2ccc3ncnc(Nc4cccc(O)c4C)c3c2)ccc1O [Compound 53, 3-(6-(4-hydroxy-3-methoxyphenyl)quinazolin-4-ylamino)-2-methylphenol]
8 | 1410 | 430 | 463 | 64.1 | – | COc1cc(-c2ccc3ncnc(Nc4cccc(NS(C)(=O)=O)c4)c3c2)ccc1O [Compound 56, N-(3-(6-(4-hydroxy-3-methoxyphenyl)quinazolin-4-ylamino)phenyl)methanesulfonamide]
9 | 3900 | 472 | 309 | 62.6 | – | COc1cccc(-c2ccc3ncnc(Nc4cccc5[nH]ncc45)c3c2)c1 [Compound 144, N-(1H-indazol-4-yl)-6-(3-methoxyphenyl)quinazolin-4-amine]
10 | 1270 | 702 | 668 | 58 | – | COc1cc(-c2ccc3ncnc(Nc4cccc5[nH]nnc45)c3c2)ccc1O [Compound 82, 4-(4-(1H-benzo[d][1,2,3]triazol-4-ylamino)quinazolin-6-yl)-2-methoxyphenol]
11 | > 3000 | 2340 | 667 | 53.6 | – | COc1cc(-c2ccc3ncnc(Nc4ccccc4C(N)=O)c3c2)ccc1O [Compound 33, 2-(6-(4-hydroxy-3-methoxyphenyl)quinazolin-4-ylamino)benzamide]
12 | > 10000 | 3390 | 3290 | – | – | COc1cccc(-c2ccc3ncnc(Nc4ccccc4)c3c2)c1 [Compound 3, 6-(3-methoxyphenyl)-N-phenylquinazolin-4-amine]
13 | 1910 | 619 | 647 | 59.4 | – | COc1cc(-c2ccc3ncnc(Nc4ccc(C)cc4F)c3c2)ccc1O [Compound 17, 4-(4-(2-fluoro-4-methylphenylamino)quinazolin-6-yl)-2-methoxyphenol]
14 | 9460 | 4870 | 3990 | – | – | Oc1ccc(-c2ccc3ncnc(Nc4ccccc4)c3c2)cc1 [Compound 4, 4-(4-(phenylamino)quinazolin-6-yl)phenol]
15 | 1250 | 810 | 817 | 51.5 | – | COc1cc(-c2ccc3ncnc(Nc4ccc(Cl)cc4F)c3c2)ccc1O [Compound 16, 4-(4-(4-chloro-2-fluorophenylamino)quinazolin-6-yl)-2-methoxyphenol]
16 | 1300 | 544 | 560 | 69.2 | – | COc1cc(-c2ccc3ncnc(Nc4cccc(F)c4)c3c2)ccc1O [Compound 52, 4-(4-(3-fluorophenylamino)quinazolin-6-yl)-2-methoxyphenol]

The remaining lines, values behind:

Row | Structure (SMILES) | IC50 (C-Raf) [nM] | IC50 (B-Raf (V600E)) [nM] | IC50 (B-Raf) [nM] | inhibition at 1 µM (B-Raf; 1.0 μM compound) [%] | B-Raf inhibition at 1.0 μM (B-Raf; 1.0 μM compound) [%]
17 | O=[N+]([O-])c1cccc(-c2ccc3ncnc(Nc4cccc5[nH]ncc45)c3c2)c1 [Compound 92, N-(1H-indazol-4-yl)-6-(3-nitrophenyl)quinazolin-4-amine] | 1610 | 535 | 428 | 66.3 | –
18 | N#Cc1ccc(-c2ccc3ncnc(Nc4cccc5[nH]ncc45)c3c2)cc1 [Compound 88, 4-(4-(1H-indazol-4-ylamino)quinazolin-6-yl)benzonitrile] | 630 | 299 | 249 | 77.4 | –
19 | CCCS(=O)(=O)Nc1cccc(-c2ccc3nccc(Nc4cccc5[nH]ncc45)c3c2)c1 [Compound 122, N-(3-(4-(1H-indazol-4-ylamino)quinolin-6-yl)phenyl)propane-1-sulfonamide] | 439 | 264 | 259 | 77.5 | –
20 | Clc1ccc(-c2ccc3ncnc(Nc4cccc5[nH]ncc45)c3c2)cc1 [Compound 80, 6-(4-chlorophenyl)-N-(1H-indazol-4-yl)quinazolin-4-amine] | 919 | 289 | 287 | 77.2 | –
21 | COc1cccc(-c2ccc3nccc(Nc4cccc5[nH]ncc45)c3c2)c1 [Compound 146, N-(1H-indazol-4-yl)-6-(3-methoxyphenyl)quinolin-4-amine] | 3700 | 426 | 614 | – | 64.3
22 | COc1ccc(-c2ccc3ncnc(Nc4cccc5[nH]ncc45)c3c2)cc1 [Compound 147, N-(1H-indazol-4-yl)-6-(4-methoxyphenyl)quinazolin-4-amine] | 2950 | 848 | 680 | 50.7 | –
23 | COc1ccc(-c2ccc3nccc(Nc4cccc5[nH]ncc45)c3c2)cc1OC [Compound 113, 6-(3,4-dimethoxyphenyl)-N-(1H-indazol-4-yl)quinolin-4-amine] | 972 | 291 | 263 | 75.5 | –
24 | CS(=O)(=O)Nc1cccc(-c2ccc3ncnc(Nc4cccc(O)c4)c3c2)c1 [Compound 72, N-(3-(4-(3-hydroxyphenylamino)quinazolin-6-yl)phenyl)methanesulfonamide] | 861 | 90 | 73.8 | 93.4 | –
25 | NS(=O)(=O)c1ccc(-c2ccc3ncnc(Nc4cccc5[nH]ncc45)c3c2)cc1 [Compound 107, 4-(4-(1H-indazol-4-ylamino)quinazolin-6-yl)benzenesulfonamide] | 677 | 328 | 345 | 75.4 | –
26 | FC(F)(F)c1cccc(-c2ccc3ncnc(Nc4cccc5[nH]ncc45)c3c2)c1 [Compound 87, N-(1H-indazol-4-yl)-6-(3-(trifluoromethyl)phenyl)quinazolin-4-amine] | 844 | 371 | 356 | 71.3 | –
27 | CS(=O)(=O)Nc1ccc(-c2ccc3ncnc(Nc4cccc5[nH]ncc45)c3c2)cc1 [Compound 73, N-(4-(4-(1H-indazol-4-ylamino)quinazolin-6-yl)phenyl)methanesulfonamide] | 1430 | 487 | 366 | 72.5 | –
28 | COc1ccc(-c2ccc3nccc(Nc4cccc5[nH]ncc45)c3c2)cc1F [Compound 112, 6-(3-fluoro-4-methoxyphenyl)-N-(1H-indazol-4-yl)quinolin-4-amine] | 619 | 207 | 182 | 80.2 | –
29 | COc1cc(-c2ccc3nccc(Nc4cc(NS(C)(=O)=O)ccc4F)c3c2)ccc1O [Compound 128, N-(4-fluoro-3-(6-(4-hydroxy-3-methoxyphenyl)quinolin-4-ylamino)phenyl)methanesulfonamide] | 12800 | 4280 | 4130 | 18.5 | –
30 | CN(C)c1ccc(-c2ccc3ncnc(Nc4cccc5[nH]ncc45)c3c2)cc1 [Compound 90, 6-(4-(dimethylamino)phenyl)-N-(1H-indazol-4-yl)quinazolin-4-amine] | 4080 | 1010 | 762 | 56.1 | –
